Reference: the supplement of paper PMC10307832

Columns and labels:
Experiment in all cases: relative viability (nuclei count vs DMSO), 5 days (fraction); higher = more cells survive
ChaGo-K-1 = tested on: ChaGo-K-1
Method in brief: (§1)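 Relative viability was taken as the ratio of nuclei in treated wells to nuclei in vehicle wells. Lung cancer cell lines in 1536-well plates received compounds by pin tool one day after seeding, either one drug alone or a fixed anchor-drug dose plus five library-drug doses (not always all listed) in √10 steps. Nuclei were counted on 4× images after 5 days of treatment, and values are medians of duplicate plates.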

EMC-BAC-2 = tested on: EMC-BAC-2
Method in brief: as §1

EPLC-272H = tested on: EPLC-272H
Method in brief: as §1

HCC-78 = tested on: HCC-78
Method in brief: as §1

HCC-827 = tested on: HCC-827
Method in brief: as §1

LCLC-103H = tested on: LCLC-103H
Method in brief: as §1

LK-2 = tested on: LK-2
Method in brief: as §1

LOU-NH91 = tested on: LOU-NH91
Method in brief: as §1

LU99A = tested on: LU99A
Method in brief: as §1

LXF-289 = tested on: LXF-289
Method in brief: as §1

NCI-H1563 = tested on: NCI-H1563
Method in brief: as §1

NCI-H1666 = tested on: NCI-H1666
Method in brief: as §1

NCI-H1975 = tested on: NCI-H1975
Method in brief: as §1

NCI-H2085 = tested on: NCI-H2085
Method in brief: as §1

NCI-H2126 = tested on: NCI-H2126
Method in brief: as §1

NCI-H23 = tested on: NCI-H23
Method in brief: as §1

NCI-H2405 = tested on: NCI-H2405
Method in brief: as §1

NCI-H3122 = tested on: NCI-H3122
Method in brief: as §1

NCI-H322M = tested on: NCI-H322M
Method in brief: as §1

RERF-LC-KJ = tested on: RERF-LC-KJ
Method in brief: as §1

SK-LU-1 = tested on: SK-LU-1
Method in brief: as §1

SW 1573 = tested on: SW 1573
Method in brief: as §1

Compound: NC(=O)Nc1cc(-c2cccc(F)c2)sc1C(=O)N[C@H]1CCCNC1 [AZD7762] + C[C@@H](Oc1cc(-c2cnn(C3CCNCC3)c2)cnc1N)c1c(Cl)ccc(F)c1Cl [Crizotinib] (partner 1 µM)
- relative viability (ChaGo-K-1; first compound 0.01 µM): 1.21
- relative viability (ChaGo-K-1; first compound 0.03162 µM): 1.04
- relative viability (ChaGo-K-1; first compound 0.1 µM): 1.14
- relative viability (ChaGo-K-1; first compound 0.3162 µM): 1.07
- relative viability (ChaGo-K-1; first compound 1 µM): 0.64
- relative viability (EMC-BAC-2; first compound 0.01 µM): 0.852
- relative viability (EMC-BAC-2; first compound 0.03162 µM): 0.718
- relative viability (EMC-BAC-2; first compound 0.1 µM): 0.777
- relative viability (EMC-BAC-2; first compound 0.3162 µM): 0.797
- relative viability (EMC-BAC-2; first compound 1 µM): 0.706
- relative viability (EPLC-272H; first compound 0.01 µM): 0.895
- relative viability (EPLC-272H; first compound 0.03162 µM): 1.11
- relative viability (EPLC-272H; first compound 0.1 µM): 0.967
- relative viability (EPLC-272H; first compound 0.3162 µM): 0.859
- relative viability (EPLC-272H; first compound 1 µM): 0.75
- relative viability (HCC-78; first compound 0.01 µM): 0.364
- relative viability (HCC-78; first compound 0.03162 µM): 0.35
- relative viability (HCC-78; first compound 0.1 µM): 0.317
- relative viability (HCC-78; first compound 0.3162 µM): 0.326
- relative viability (HCC-78; first compound 1 µM): 0.255
- relative viability (HCC-827; first compound 0.01 µM): 0.948
- relative viability (HCC-827; first compound 0.03162 µM): 0.904
- relative viability (HCC-827; first compound 0.1 µM): 0.933
- relative viability (HCC-827; first compound 0.3162 µM): 0.965
- relative viability (HCC-827; first compound 1 µM): 0.843
- relative viability (LCLC-103H; first compound 0.01 µM): 1.15
- relative viability (LCLC-103H; first compound 0.03162 µM): 0.994
- relative viability (LCLC-103H; first compound 0.1 µM): 1.08
- relative viability (LCLC-103H; first compound 0.3162 µM): 1.01
- relative viability (LCLC-103H; first compound 1 µM): 1.04
- relative viability (LK-2; first compound 0.01 µM): 0.203
- relative viability (LK-2; first compound 0.03162 µM): 0.221
- relative viability (LK-2; first compound 0.1 µM): 0.225
- relative viability (LK-2; first compound 0.3162 µM): 0.203
- relative viability (LK-2; first compound 1 µM): 0.228
- relative viability (LOU-NH91; first compound 0.01 µM): 0.764
- relative viability (LOU-NH91; first compound 0.03162 µM): 0.731
- relative viability (LOU-NH91; first compound 0.1 µM): 0.746
- relative viability (LOU-NH91; first compound 0.3162 µM): 0.76
- relative viability (LOU-NH91; first compound 1 µM): 0.546
- relative viability (LU99A; first compound 0.01 µM): 0.725
- relative viability (LU99A; first compound 0.03162 µM): 0.67
- relative viability (LU99A; first compound 0.1 µM): 0.602
- relative viability (LU99A; first compound 0.3162 µM): 0.587
- relative viability (LU99A; first compound 1 µM): 0.228
- relative viability (LXF-289; first compound 0.01 µM): 0.788
- relative viability (LXF-289; first compound 0.03162 µM): 0.8
- relative viability (LXF-289; first compound 0.1 µM): 0.828
- relative viability (LXF-289; first compound 0.3162 µM): 0.864
- relative viability (LXF-289; first compound 1 µM): 0.816
- relative viability (NCI-H1563; first compound 0.01 µM): 0.957
- relative viability (NCI-H1563; first compound 0.03162 µM): 0.833
- relative viability (NCI-H1563; first compound 0.1 µM): 0.872
- relative viability (NCI-H1563; first compound 0.3162 µM): 0.889
- relative viability (NCI-H1563; first compound 1 µM): 0.741
- relative viability (NCI-H1666; first compound 0.01 µM): 1.58
- relative viability (NCI-H1666; first compound 0.03162 µM): 1.16
- relative viability (NCI-H1666; first compound 0.1 µM): 1.23
- relative viability (NCI-H1666; first compound 0.3162 µM): 0.993
- relative viability (NCI-H1666; first compound 1 µM): 0.695
- relative viability (NCI-H1975; first compound 0.01 µM): 1.06
- relative viability (NCI-H1975; first compound 0.03162 µM): 0.937
- relative viability (NCI-H1975; first compound 0.1 µM): 0.837
- relative viability (NCI-H1975; first compound 0.3162 µM): 0.903
- relative viability (NCI-H1975; first compound 1 µM): 0.638
- relative viability (NCI-H2085; first compound 0.01 µM): 1.01
- relative viability (NCI-H2085; first compound 0.03162 µM): 0.889
- relative viability (NCI-H2085; first compound 0.1 µM): 0.839
- relative viability (NCI-H2085; first compound 0.3162 µM): 0.853
- relative viability (NCI-H2085; first compound 1 µM): 0.644
- relative viability (NCI-H2126; first compound 0.01 µM): 1.01
- relative viability (NCI-H2126; first compound 0.03162 µM): 1.01
- relative viability (NCI-H2126; first compound 0.1 µM): 1.12
- relative viability (NCI-H2126; first compound 0.3162 µM): 1.04
- relative viability (NCI-H2126; first compound 1 µM): 1.05
- relative viability (NCI-H23; first compound 0.01 µM): 0.687
- relative viability (NCI-H23; first compound 0.03162 µM): 0.517
- relative viability (NCI-H23; first compound 0.1 µM): 0.542
- relative viability (NCI-H23; first compound 0.3162 µM): 0.323
- relative viability (NCI-H23; first compound 1 µM): 0.203
- relative viability (NCI-H2405; first compound 0.01 µM): 0.94
- relative viability (NCI-H2405; first compound 0.03162 µM): 0.802
- relative viability (NCI-H2405; first compound 0.1 µM): 0.841
- relative viability (NCI-H2405; first compound 0.3162 µM): 0.819
- relative viability (NCI-H2405; first compound 1 µM): 0.398
- relative viability (NCI-H3122; first compound 0.01 µM): 0.266
- relative viability (NCI-H3122; first compound 0.03162 µM): 0.296
- relative viability (NCI-H3122; first compound 0.1 µM): 0.329
- relative viability (NCI-H3122; first compound 0.3162 µM): 0.258
- relative viability (NCI-H3122; first compound 1 µM): 0.283
- relative viability (NCI-H322M; first compound 0.01 µM): 1.04
- relative viability (NCI-H322M; first compound 0.03162 µM): 0.845
- relative viability (NCI-H322M; first compound 0.1 µM): 0.883
- relative viability (NCI-H322M; first compound 0.3162 µM): 0.962
- relative viability (NCI-H322M; first compound 1 µM): 0.417
- relative viability (RERF-LC-KJ; first compound 0.01 µM): 0.897
- relative viability (RERF-LC-KJ; first compound 0.03162 µM): 0.894
- relative viability (RERF-LC-KJ; first compound 0.1 µM): 0.777
- relative viability (RERF-LC-KJ; first compound 0.3162 µM): 0.809
- relative viability (RERF-LC-KJ; first compound 1 µM): 0.742
- relative viability (SK-LU-1; first compound 0.01 µM): 0.991
- relative viability (SK-LU-1; first compound 0.03162 µM): 0.714
- relative viability (SK-LU-1; first compound 0.1 µM): 0.38
- relative viability (SK-LU-1; first compound 0.3162 µM): 0.226
- relative viability (SK-LU-1; first compound 1 µM): 0.285
- relative viability (SW 1573; first compound 0.01 µM): 0.976
- relative viability (SW 1573; first compound 0.03162 µM): 0.879
- relative viability (SW 1573; first compound 0.1 µM): 0.907
- relative viability (SW 1573; first compound 0.3162 µM): 0.934
- relative viability (SW 1573; first compound 1 µM): 0.738
